Laboratory results as given in the NIST ThermoML archive (doi:10.1021/acs.jced.5b00367).

Assay: wn = mass fraction of the nth substance listed
Details: 101 kPa, Liquid, Alternating current cell with electrodes, w2 = 0.01

CCCCCCCCCCCCCCCC[N+](C)(C)C.[Br-] [N,N,N-trimethyl-1-hexadecanaminium bromide] + O
Details	electrical conductivity [S/m]
278.35 K	0.0058
278.45 K	0.00619
278.65 K	0.00607
278.75 K	0.00612
278.85 K	0.0062
278.95 K	0.00609
279.05 K	0.00617
279.15 K	0.00614
279.25 K	0.0062
279.35 K	0.00616
279.45 K	0.00619
279.55 K	0.00628
279.65 K	0.00609
279.85 K	0.0061
279.95 K	0.00631
280.05 K	0.00615
280.15 K	0.00638
280.25 K	0.00613
280.35 K	0.00642
280.45 K	0.00634
280.55 K	0.00613
280.65 K	0.00616
280.75 K	0.00638
280.95 K	0.00614
281.05 K	0.00624
281.25 K	0.00621
281.35 K	0.00655
281.45 K	0.00644
281.55 K	0.00622
281.75 K	0.00649
281.85 K	0.00648
282.05 K	0.00651
282.45 K	0.00667
282.55 K	0.00678
282.65 K	0.00648
282.75 K	0.00655
282.95 K	0.00662
283.05 K	0.00638
283.15 K	0.00641
283.25 K	0.0067
283.35 K	0.00677
283.45 K	0.00666
283.55 K	0.0068
283.75 K	0.00674
283.85 K	0.0068
283.95 K	0.00686
284.05 K	0.00653
284.15 K	0.00678
284.25 K	0.00646
284.45 K	0.00672
284.55 K	0.007
284.65 K	0.00699
284.75 K	0.00651
284.85 K	0.00686
285.05 K	0.00717
285.15 K	0.00708
285.25 K	0.00696
285.35 K	0.00725
285.45 K	0.00739
285.55 K	0.00715
285.65 K	0.00719
285.85 K	0.00716
285.95 K	0.00733
286.05 K	0.00702
286.15 K	0.00705
286.25 K	0.007
286.35 K	0.00737
286.45 K	0.00737
286.55 K	0.00715
286.65 K	0.00719
286.75 K	0.00733
286.85 K	0.0074
286.95 K	0.00708
287.05 K	0.00755
287.15 K	0.00733
287.25 K	0.00744
287.35 K	0.00761
287.45 K	0.00728
287.55 K	0.00751
287.65 K	0.00752
287.75 K	0.0073
287.85 K	0.0076
287.95 K	0.00774
288.05 K	0.0076
288.15 K	0.00778
288.25 K	0.00766
288.35 K	0.00772
288.45 K	0.00805
288.55 K	0.00791
288.65 K	0.00778
288.75 K	0.00779
288.85 K	0.0077
288.95 K	0.00795
289.05 K	0.00784
289.15 K	0.00787
289.25 K	0.00779
289.35 K	0.00805
289.45 K	0.00794
289.55 K	0.00793
289.65 K	0.00803
289.75 K	0.00826
289.85 K	0.00819
289.95 K	0.00835
290.05 K	0.0079
290.15 K	0.00861
290.25 K	0.00828
290.35 K	0.00849
290.45 K	0.00815
290.55 K	0.00824
290.65 K	0.00834
290.75 K	0.00836
290.85 K	0.00818
290.95 K	0.00836
291.05 K	0.00861
291.15 K	0.00846
291.25 K	0.0088
291.35 K	0.00865
291.45 K	0.00866
291.55 K	0.00853
291.65 K	0.00868
291.75 K	0.00867
291.85 K	0.00897
291.95 K	0.00872
292.05 K	0.00879
292.15 K	0.00913
292.25 K	0.00908
292.35 K	0.00902
292.45 K	0.00905
292.55 K	0.00904
292.65 K	0.00928
292.75 K	0.00942
292.85 K	0.00967
292.95 K	0.00959
293.05 K	0.00954
293.15 K	0.00976
293.25 K	0.01
293.35 K	0.0101
293.45 K	0.0102
293.55 K	0.0103
293.65 K	0.0105
293.75 K	0.0102
294.15 K	0.0106
294.25 K	0.0109
294.35 K	0.0107
294.45 K	0.011
294.55 K	0.0111
294.65 K	0.0109
294.75 K	0.011
294.85 K	0.0114
294.95 K	0.0113
295.05 K	0.0114
295.15 K	0.0117
295.25 K	0.0117
295.45 K	0.0122
295.65 K	0.0126
295.75 K	0.0124
295.85 K	0.0128
296.05 K	0.013
296.15 K	0.0139
296.35 K	0.0139
296.45 K	0.0145
296.55 K	0.0148
296.75 K	0.0157
296.95 K	0.0167
297.05 K	0.0178
297.15 K	0.02
297.35 K	0.0201
297.45 K	0.0217
297.55 K	0.0232
297.65 K	0.0257
297.95 K	0.0314
298.05 K	0.0353
298.25 K	0.0406
298.35 K	0.0457
298.45 K	0.0514
298.55 K	0.0565
298.75 K	0.0605
298.85 K	0.0628
299.05 K	0.0642
299.15 K	0.0647
299.25 K	0.0648
299.55 K	0.0651
299.75 K	0.0653
299.95 K	0.0654
300.25 K	0.0657
300.85 K	0.066
301.25 K	0.0662
301.45 K	0.0663
302.05 K	0.0667
302.25 K	0.0668
302.55 K	0.067
302.65 K	0.0671
302.85 K	0.0672
302.95 K	0.0666
303.05 K	0.0673
303.15 K	0.0675
303.35 K	0.0676
303.65 K	0.0678
303.85 K	0.0679
304.05 K	0.068
304.25 K	0.0682
304.45 K	0.0683
304.55 K	0.0684
304.75 K	0.0685
304.95 K	0.0687
305.15 K	0.0688
305.45 K	0.0689
305.65 K	0.0692
306.25 K	0.0695
306.45 K	0.0696
306.85 K	0.0699
307.05 K	0.07
307.35 K	0.0702
307.45 K	0.0703
307.75 K	0.0705
307.95 K	0.0707
308.65 K	0.0712
308.85 K	0.0714
309.05 K	0.0715
309.35 K	0.0712
309.55 K	0.0718
309.75 K	0.0719
309.85 K	0.0721
310.05 K	0.0722
310.25 K	0.0723
310.45 K	0.0724
310.65 K	0.0727
310.85 K	0.0728
311.25 K	0.073
311.55 K	0.0732
311.75 K	0.0735
312.05 K	0.0737
312.55 K	0.074
312.95 K	0.0744
313.35 K	0.0745
313.55 K	0.0747
313.75 K	0.0748
313.95 K	0.075
314.15 K	0.0752
314.35 K	0.0753
314.55 K	0.0755
314.75 K	0.0756
314.95 K	0.0759
315.45 K	0.0761
315.55 K	0.0762
315.75 K	0.0764
315.95 K	0.0765
316.15 K	0.0767
316.35 K	0.0769
316.65 K	0.0771
317.05 K	0.0775
317.15 K	0.0776
318.05 K	0.0778
318.25 K	0.0783
318.45 K	0.0786
318.95 K	0.079
319.25 K	0.0792
319.75 K	0.0798
320.25 K	0.08
320.35 K	0.0802
320.65 K	0.0816
321.85 K	0.0817
322.05 K	0.0819
322.25 K	0.082
322.35 K	0.0823
322.75 K	0.0824
322.85 K	0.0826
323.15 K	0.083
323.35 K	0.0832
323.45 K	0.0834
323.65 K	0.0837
323.85 K	0.0839
324.05 K	0.0841
324.35 K	0.0842
324.45 K	0.0843
324.65 K	0.0846
324.75 K	0.0848
324.85 K	0.0849
325.15 K	0.0853
325.35 K	0.0855
325.55 K	0.0856
325.65 K	0.0858
325.85 K	0.086
326.15 K	0.0862
326.25 K	0.0863
326.45 K	0.0866
326.55 K	0.0869
326.75 K	0.087
326.95 K	0.0871
327.05 K	0.0873
327.55 K	0.0876
327.75 K	0.0876
333.45 K	0.0912
333.65 K	0.0914
333.75 K	0.0915
334.05 K	0.0916
334.35 K	0.092
334.75 K	0.0922
334.95 K	0.0924
335.35 K	0.0926
335.55 K	0.0927
335.75 K	0.0929
335.95 K	0.093
336.15 K	0.0932
336.55 K	0.0934
336.65 K	0.0935
336.85 K	0.0936
337.05 K	0.0937
337.25 K	0.0939
337.55 K	0.0942
337.75 K	0.0943
338.05 K	0.0945
338.15 K	0.0947
338.55 K	0.095
338.75 K	0.0951
338.95 K	0.0952
339.05 K	0.0953
339.15 K	0.0954
339.35 K	0.0955
339.65 K	0.0957
339.85 K	0.0959
340.05 K	0.096
340.35 K	0.0962
340.55 K	0.0963
340.65 K	0.0964
340.85 K	0.0966
341.05 K	0.0967
341.15 K	0.0968
341.35 K	0.097
341.55 K	0.0971
341.65 K	0.0972
341.85 K	0.0973
341.95 K	0.0974
342.05 K	0.0975
342.25 K	0.0977
342.45 K	0.0979
342.75 K	0.098
342.95 K	0.0982
343.05 K	0.0983
343.25 K	0.0987
343.45 K	0.0989
343.75 K	0.099
343.95 K	0.0991
344.05 K	0.0993
344.35 K	0.0995
344.55 K	0.0996
344.75 K	0.1
345.05 K	0.1
345.35 K	0.1
345.55 K	0.101
345.85 K	0.101
346.05 K	0.101
346.25 K	0.101
346.55 K	0.101
346.75 K	0.102
346.85 K	0.102
347.05 K	0.102
347.25 K	0.102
347.55 K	0.102
347.75 K	0.102
348.05 K	0.103
348.15 K	0.103
